Laboratory results reported in US20220322667A1, “MICROBIOCIDAL USE” (DSM IP ASSETS B.V., priority 2019, published 2022).

How the values were obtained:
Test in all cases: Antimicrobial challenge test in analogy to NF EN ISO 11930
Type in all cases: cell-based
Candida albicans = system: Candida albicans
Description: (§1) The antimicrobial efficacy was assessed in analogy to the regulatory challenge test method (NF EN IS011930). Thus, mixtures of the respective active(s) with physiological serum with 0.85 wt.-% NaCl in the concentrations as outlined below are prepared under sterile conditions. Controls were also prepared under sterile conditions. The control as well as the mixtures were then deposed in 96-deep well plates (1.6 ml/well). The wells were contaminated with the respective bacterial or the fungal strains at 2.5*10^5 to 5.6*10^5 cfu/ml for the bacteria and 1*10^4 to 2.5*10^4 cfu/ml for the fungi to obtain the initial contamination as outlined below. After the contamination, each well was thoroughly mixed to ensure a homogeneous distribution of microbes. Then each plate was incubated at 22° C. for 24 h. The counting of the (remaining) population is carried out 24 h after contamination. Then, the average log reduction is calculated [−log 10{(value inoculum)/(value sample)}] which is represented in tables 1-5.

Aspergillus brasiliensis = details: 0.3 wt.-% DBO, 24 h at 22° C.
Description: as §1, with “The wells were contaminated with the respective bacterial or the fungal strains at 2.5*10^5 to 5.6*10^5 cfu/ml for the bacteria and 1*10^4 to 2.5*10^4 cfu/ml for the fungi to obtain the initial contamination as outlined below.” left out

Staphylococcus aureus = details: 0.3 wt.-% HAP, 24 h
Description: as §1

Escherichia coli = details: 0.2 wt.-% Sodium Benzoate, 24 h
Description: as §1

## c1ccc2oc(-c3ccc(-c4nc5ccccc5o4)cc3)nc2c1 [DBO, 1,4-di(benzoxazol-2′-yl)benzene]
Candida albicans; 0.3 wt.-% DBO, 24 h at 22° C.
  Log reduction: −0.51
Candida albicans; 0.3 wt.-% DBO, 24 h at 22° C., inoculum 32000 cfu/ml
  24 h colony count: 10000 cfu/ml
Aspergillus brasiliensis
  Log reduction: −2.05
Aspergillus brasiliensis; inoculum 45000 cfu/ml
  24 h colony count: 400 cfu/ml

## CC(=O)c1ccc(O)cc1 [HAP, 1-(4-hydroxyphenyl)-ethanone]
Staphylococcus aureus
  Log reduction: −1.16
Staphylococcus aureus; 550000 cfu/ml at 0 h
  Staphylococcus aureus colony count: 70000 cfu/ml

## OCCCO [PDO, 1,3-propanediol]
Candida albicans; 1.0 wt.-% PDO, 24 h
  Log reduction: −0.24
Candida albicans; 1.0 wt.-% PDO, 24 h, 70000 cfu/ml at 0 h
  Candida albicans colony count: 40000 cfu/ml

## O=C([O-])c1ccccc1.[Na+] [Sodium Benzoate, sodium benzoate]
Escherichia coli
  Log reduction: +0.40
Escherichia coli; 400000 cfu/ml at 0 h
  Escherichia coli colony count: 1000000 cfu/ml
